Assays:
[1] = tested on: mice injected with LPS; assay: Organ injury and dysfunction in a mouse model of septic shock (LPS); type: in vivo, C57BL/6 mice; details: 10 mg/kg, all three treatment groups (i.p. 1 h post-LPS, i.v. 1 h post-LPS, i.p. 30 min pre-LPS)
Protocol: Twenty-six male C57BL/6 mice (Harlan Laboratories, Wyton, UK), weighing 20-30 g were used for this experiment. At time point 0 (t=0 h) mice received either LPS (9 mg/kg in 5 ml/kg 0.9% NaCl) or vehicle (5 ml/kg 0.9% NaCl) intraperitoneally (i.p.). Mice were then sacrificed 16-18 h after the injection of LPS by induction of anaesthesia with ketamine (100 mg/ml)/xylazine (20 mg/ml) solution in a 2:1 ratio and removal of the heart.
At the end of the experiment, 0.7 ml blood was collected from the right carotid artery and decanted into serum gel tubes (Sarstedt, Numbrecht, Germany). The samples were centrifuged (9900 rpm for 3 min) to separate serum from which urea, creatinine and alanine aminotransferase (ALT) were measured within 24 hours (Idexx Laboratories Ltd., West Yorkshire, UK).
Share-operated nice received saline (5 ml/kg i.p.) instead of LPS.

[2] = tested on: HS-rats; assay: Organ injury and dysfunction induced by trauma haemorrhage (haemorrhagic shock) in the rat; type: in vivo, Wistar rats
Protocol: Thirty-five male Wistar rats (271±5 g) were anaesthetised with sodium thiopentone (120 mg/kg i.p., LINK Pharmaceuticals Ltd., West Sussex, UK) and anaesthesia was maintained by supplementary injections (˜10 mg/kg i.v.) of sodium thiopentone as and when required. The animals were placed onto a thermostatically controlled heating mat (Harvard Apparatus Ltd., Kent, UK) and body temperature was maintained at 37±1° C. by means of a rectal probe attached to a homeothermic blanket. A tracheotomy was performed by inserting into the lumen of the trachea a small length of polyethylene tubing [Internal Diameter (ID) 1.67 mm, Portex, Kent, UK] to maintain airway patency and facilitate spontaneous respiration.
The right carotid artery was cannulated (ID 0.58 mm, Portex) to facilitate the withdrawal of blood using a heparinised syringe. The right jugular vein was cannulated (ID 0.40 mm, Portex) for the administration of Ringer's Lactate (RL), shed blood, test compounds and/or vehicle. The bladder was also cannulated (ID 0.76 mm, Portex) for the collection of urine. Upon completion of the surgical procedure, cardiovascular parameters were allowed to stabilise for a period of 15 min.
After the stabilisation period, blood was withdrawn via the cannula inserted in the right carotid artery in order to achieve a fall in MAP to 35±5 mmHg within 10 min. From this point onwards, MAP was maintained at 35±5 mmHg for a period of 90 min either by further withdrawal of blood during the compensation phase (MAP rises following blood withdrawal due to sympathetic response) or administration of Ringer's Lactate i.v. during the decompensation phase (animals are unable to increase and maintain high MAP). The average volume of blood withdrawn during haemorrhage was 9.8±0.2 ml (n=31, across all haemorrhaged groups). At 90 min after initiation of haemorrhage, resuscitation was performed with 20 ml/kg Ringer's Lactate i.v. over a period of 10 min and then half the shed blood mixed with 100 u/ml heparinised saline i.v. over a period of 50 min. At the end of 1 h resuscitation, an i.v. infusion of Ringer's Lactate (1.5 ml/kg/h) was started as fluid replacement and maintained for a further 3 h.
Four hours after the onset of resuscitation, 1.2 ml blood was collected from the right carotid artery and decanted into serum gel tubes (Sarstedt, Numbrecht, Germany), after which the heart was removed to terminate the experiment. The samples were centrifuged (9900 rpm for 3 min) to separate serum from which urea, creatinine, aspartate aminotransferase (AST), alanine aminotransferase (ALT) and creatinine kinase (CK) were measured within 24 hours (Idexx Laboratories Ltd., West Yorkshire, UK). Urine collected during the last 3 h of the experiment was analysed for creatinine levels in order to estimate creatinine clearance as an indicator of glomerular dysfunction and was calculated as follows: […]
Sham-operated rats underwent identical surgical procedures but without haemorrhage or resuscitation.

[3] = tested on: rats subjected to regional myocardial ischaemia and reperfusion; assay: Regional myocardial ischaemia and reperfusion, artesunate and dihydroartemisinin; type: in vivo, Wistar rats
Protocol: Rats were anaesthetised with thiopentone sodium (Intraval® 120 mg/kg i.p.). Anaesthesia was maintained by supplementary injections of thiopentone sodium as required. The trachea was cannulated and the animals were ventilated with a Harvard ventilator (inspiratory oxygen concentration: 30%; 70 strokes/min, tidal volume: 8-10 ml/kg). Body temperature was maintained at 37±1° C. with the aid of a rectal probe thermometer attached to a homeothermic blanket unit (Harvard Apparatus Ltd., Edenbridge, Kent. U.K.). […] The right jugular vein was then cannulated for the administration of drugs and saline. A para-sternal thoracotomy was then performed, using an Electrosurgery device to cauterize the intercostals arteries before cutting through three ribs. The chest was retracted and pericardium dissected from the heart. The left anterior descending (LAD) coronary artery was isolated and a snare occluder was placed around the LAD. The retractor was then removed and the animal was allowed to stabilise for 15 min.
The occluder was tightened at time 0. After 25 min of LAD-occlusion, the occluder was released to allow reperfusion of the previously ischemic myocardium (2 h). Haemodynamic parameters were continuously monitored. Baseline readings were taken prior to treatment, and, myocardial ischaemia reperfusion (IR) injury. The pressure rate index (PRI), a relative indicator of myocardial oxygen consumption was calculated as a product of the MAP (mmHg) and HR (beats/minute-bpm) and expressed in mm Hg bpm×10^−3.
At the end of the 2 h reperfusion period, the LAD was re-occluded and 1 ml of Evans Blue dye (2% w/v) was injected into the animal, via the jugular vein. The Evans Blue dye stains the tissue it can circulate through, therefore the non-perfused vascular (occluded) tissue remains un-coloured. Each animal was killed with an over-dose of anaesthetic, the heart excised, and excess dye washed off. […] The ischaemic and non-ischaemic tissue was weighed, and the AAR expressed as a percentage of the left ventricle. The tissue from the AAR was cut into small pieces and incubated with p-nitroblue tetrazolium (NBT, 0.5 mg/ml) for 30 min at 37° C. NBT is a reducing agent that reacts with dehydrogenases present in viable (non-infarcted) tissue to produce a dark blue formazan. Infarcted tissue (non-viable) will not have dehydrogenase activity and will therefore fail to stain. The stained tissue was separated from the infarcted tissue, weighed, and the infarct size expressed as a percentage of the AAR.
Sham-operated rats were subjected to surgical procedure without myocardial ischaemia and reperfusion.

[4] = 1 mg/kg i.v. on resuscitation, P>0.05
[5] = both 3 and 10 mg/kg i.v. on resuscitation, P<0.05
[6] = bolus 1 mg/kg upon reperfusion, P>0.05 vs Control

SMILES: C[C@H]1[C@H](OC(=O)CCC(=O)O)O[C@@H]2O[C@@]3(C)CC[C@H]4[C@H](C)CC[C@@H]1[C@@]24OO3 [artesunate]
- rise in serum ALT [1]: no significant effect
- rise in serum creatinine ([1]; P>0.05): no significant effect
- rise in serum urea ([1]; P>0.05): no significant effect
- rise in serum ALT [2, 4]: no significant effect
- rise in serum AST [2, 4]: no significant effect
- rise in serum creatinine [2, 4]: no significant effect
- rise in serum creatinine kinase [2, 4]: no significant effect
- rise in serum urea [2, 4]: no significant effect
- rise in serum urea ([2]; 3 mg/kg i.v. on resuscitation, 4 h after onset of resuscitation, P<0.05 vs HS-rats): significantly attenuated
- rise in serum creatinine ([2]; 3 mg/kg i.v. on resuscitation, P<0.005 vs HS-rats): significantly attenuated
- rise in serum creatinine ([2]; 10 mg/kg i.v. on resuscitation, P<0.005): significantly attenuated
- decline in MAP caused by haemorrhage during the resuscitation phase ([2]; 1, 3 or 10 mg/kg i.v. on resuscitation, P>0.05): failed to attenuate
- rise in serum ALT ([2]; both 3 and 10 mg/kg i.v. on resuscitation, P<0.005): significantly attenuated
- rise in serum AST [2, 5]: significantly attenuated
- rise in serum creatinine kinase [2, 5]: significantly attenuated
- infarct size (percentage of the AAR) ([3]; 1 mg/kg i.v. bolus upon reperfusion, from 59.8±3.2, P<0.05): 36.0±1.1%
- Infarct size reduction ([3]; 1 mg/kg i.v. upon reperfusion, vs control): 40%
- area at risk ([3]; 1 mg/kg, compared to vehicle treated rats): no significant effect
- fall in mean arterial blood pressure caused by myocardial ischaemia and reperfusion [3, 6]: did not attenuate
- heart rate [3, 6]: did not have a significant effect

— US9949948B2, “Artemisinin and its derivatives for use in the treatment of trauma haemorrhage and associated conditions” (Queen Mary University of London, priority 2011, dated 2018)
